Patent publication EP4603105A1, “PHARMACEUTICAL COMPOSITION CONTAINING CYCLIC COMPOUND HAVING SELECTIVE KRAS INHIBITORY EFFECT AGAINST HRAS AND NRAS” (CHUGAI SEIYAKU KABUSHIKI KAISHA, priority 2022, dated 2024)

Assays:
[1] = target: HRAS wild-type protein (Homo sapiens, UniProt P01112); assay: Binding to HRAS by surface plasmon resonance (SPR), KD and KD ratio to KRAS; details: ratio of KD for HRAS wild-type protein to KD for KRAS
Outline: (§1)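 GDP-bound biotin-Avi RAS captured at ~100–300 RU, 30°C, pH 7.4 HBS containing 10 µM GDP, 10 mM MgCl2, 1 mM DTT, 0.01% Tween 20 and 4% DMSO. KD by 1:1 fitting.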

[2] = tested on: human lung cancer strain NCI-H441; assay: NCI-H441 cell proliferation inhibitory activity (CellTiter-Glo, 4 days); type: cell-based; details: NCI-H441 cells, 4 days, read-out: NCl-H441 IC50
Outline: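 Readout: […] after the ATP-based reagent. Compound: serial dilutions in dimethyl sulfoxide.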

[3] = target: GDP-bound NRAS wild-type protein (Homo sapiens, UniProt P01111); assay: Binding to NRAS by surface plasmon resonance (SPR), KD and KD ratio to KRAS; details: ratio of KD for GDP-bound NRAS wild-type protein to KD for KRAS
Chain of GDP-bound NRAS wild-type protein (P01111 whole entry): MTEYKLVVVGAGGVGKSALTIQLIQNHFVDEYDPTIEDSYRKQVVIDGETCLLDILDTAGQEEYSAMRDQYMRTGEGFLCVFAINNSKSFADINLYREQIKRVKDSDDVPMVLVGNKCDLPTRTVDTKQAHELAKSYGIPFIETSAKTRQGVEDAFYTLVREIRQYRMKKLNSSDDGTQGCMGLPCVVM
Outline: as §1

[4] = target: GDP-bound KRAS wild-type protein (Homo sapiens, UniProt P01116); assay: Binding to KRAS by surface plasmon resonance (SPR), dissociation constant KD; details: Single Cycle Kinetics
Chain of GDP-bound KRAS wild-type protein (P01116 1-188 isoform P01116-2): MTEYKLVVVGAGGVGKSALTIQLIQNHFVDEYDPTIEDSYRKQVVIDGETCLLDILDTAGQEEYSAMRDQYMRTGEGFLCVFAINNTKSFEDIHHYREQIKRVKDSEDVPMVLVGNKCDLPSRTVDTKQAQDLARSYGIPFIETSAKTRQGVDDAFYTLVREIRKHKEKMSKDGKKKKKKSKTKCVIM
Outline: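 Compound binding is evaluated by SPR single-cycle kinetics, with concentrations added intermittently from low to high for 75 s each. Target surfaces carry GDP-loaded biotinylated Avi-RAS at about 100–300 RU, regenerated after each cycle; temperature 30°C. A 1:1 binding model gives KD.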

Chain of HRAS wild-type protein (P01112 whole entry): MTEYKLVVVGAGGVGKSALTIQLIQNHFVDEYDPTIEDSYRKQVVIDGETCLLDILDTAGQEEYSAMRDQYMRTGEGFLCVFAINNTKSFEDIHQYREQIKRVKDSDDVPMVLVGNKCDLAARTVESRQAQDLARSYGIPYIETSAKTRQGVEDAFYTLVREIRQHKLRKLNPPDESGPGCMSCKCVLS

Compound	IC50 [2]	Kd [4]	HRAS /KRAS [1]	NRAS /KRAS [3]
CCCO[C@@H]1C[C@H]2C(=O)NC3(CC(C)(C)C3)C(=O)N(C)[C@@H](C3CCCC3)C(=O)N(C)[C@H](C(=O)N(C)CC)CC(=O)N(C)[C@@H](COCC)C(=O)N[C@@H]([C@@H](C)CC)C(=O)N(C3CC3)CC(=O)N(C)[C@H]3C/C=C\CCN(C3=O)[C@@H](Cc3ccc(C)cc3)C(=O)N(C)CC(=O)N[C@@H](CCc3cc(F)c(C(F)(F)F)c(F)c3)C(=O)N2C1 [PP3458]	28.8 nM	0.82 nM	A (a compound having 10 or more and less than 20 is denoted as A)	A (a compound having 10 or more and less than 20 is denoted as A)
CCCO[C@@H]1C[C@H]2C(=O)NC3(CC(C)(C)C3)C(=O)N(C)[C@@H](C3CCCC3)C(=O)N(C)[C@H](C(=O)N(C)CC)CC(=O)N(C)[C@@H](COCC)C(=O)N[C@@H]([C@@H](C)CC)C(=O)N3CCC[C@H]3C(=O)N(C)[C@H]3C/C=C\CCN(C3=O)[C@@H](Cc3ccc(C)cc3)C(=O)N(C)CC(=O)N[C@@H](CCc3cc(F)c(C(F)(F)F)c(F)c3)C(=O)N2C1 [PP3459]	40.2 nM	0.97 nM	A (a compound having 10 or more and less than 20 is denoted as A)	A (a compound having 10 or more and less than 20 is denoted as A)
CCCO[C@@H]1C[C@H]2C(=O)NC3(CC(C)(C)C3)C(=O)N(C)[C@@H](C3CCCC3)C(=O)N(C)[C@H](C(=O)N(C)CC)CC(=O)N(C)[C@@H](COCC)C(=O)N[C@@H]([C@@H](C)CC)C(=O)N3C[C@@H](C)C[C@H]3C(=O)N(C)[C@H]3C/C=C\CCN(C3=O)[C@@H](Cc3ccc(C)cc3)C(=O)N(C)CC(=O)N[C@@H](CCc3cc(F)c(C(F)(F)F)c(F)c3)C(=O)N2C1 [PP3460]	115 nM	3.1 nM	A (a compound having 10 or more and less than 20 is denoted as A)	A (a compound having 10 or more and less than 20 is denoted as A)
CCCO[C@@H]1C[C@H]2C(=O)NC3(CC(C)(C)C3)C(=O)N(C)[C@@H](C3CCCC3)C(=O)N(C)[C@H](C(=O)N(C)CC)CC(=O)N(C)[C@@H](COCC)C(=O)N[C@@H]([C@@H](C)CC)C(=O)N3C[C@@H](F)C[C@H]3C(=O)N(C)[C@H]3C/C=C\CCN(C3=O)[C@@H](Cc3ccc(C)cc3)C(=O)N(C)CC(=O)N[C@@H](CCc3cc(F)c(C(F)(F)F)c(F)c3)C(=O)N2C1 [PP3461]	19.1 nM	0.35 nM	A (a compound having 10 or more and less than 20 is denoted as A)	A (a compound having 10 or more and less than 20 is denoted as A)
CCCO[C@@H]1C[C@H]2C(=O)NC3(CC(C)(C)C3)C(=O)N(C)[C@@H](C3CCCC3)C(=O)N(C)[C@H](C(=O)N(C)CC)CC(=O)N(C)[C@@H](COCC)C(=O)N[C@@H]([C@@H](C)CC)C(=O)N(C3CC3)CC(=O)N(C)[C@H]3C/C=C\CCN(C3=O)[C@@H](Cc3ccc(C)cc3)C(=O)N(C)CC(=O)N[C@@H](CCc3ccc(C(F)(F)F)c(Cl)c3)C(=O)N2C1 [PP3462]	39.7 nM	0.68 nM	A (a compound having 10 or more and less than 20 is denoted as A)	AA (a compound having 20 or more is denoted as AA)
CCCO[C@@H]1C[C@H]2C(=O)NC3(CC(C)(C)C3)C(=O)N(C)[C@@H](C3CCCC3)C(=O)N(C)[C@H](C(=O)N(C)CC)CC(=O)N(C)[C@@H](COCC)C(=O)N[C@@H]([C@@H](C)CC)C(=O)N3CCC[C@H]3C(=O)N(C)[C@H]3C/C=C\CCN(C3=O)[C@@H](Cc3ccc(C)cc3)C(=O)N(C)CC(=O)N[C@@H](CCc3ccc(C(F)(F)F)c(Cl)c3)C(=O)N2C1 [PP3463]	50.4 nM	0.97 nM	A (a compound having 10 or more and less than 20 is denoted as A)	A (a compound having 10 or more and less than 20 is denoted as A)
CCCO[C@@H]1C[C@H]2C(=O)NC3(CC(C)(C)C3)C(=O)N(C)[C@@H](C3CCCC3)C(=O)N(C)[C@H](C(=O)N(C)CC)CC(=O)N(C)[C@@H](COCC)C(=O)N[C@@H]([C@@H](C)CC)C(=O)N(C3CC3)CC(=O)N(C)[C@H]3C/C=C\CCN(C3=O)[C@@H](Cc3ccc(C)cc3)C(=O)N(C)CC(=O)N[C@@H](CCc3ccc(C(F)(F)F)c(OC)c3)C(=O)N2C1 [PP3466]	39.8 nM	0.97 nM	B (a compound having 3 or more and less than 10 is denoted as B)	A (a compound having 10 or more and less than 20 is denoted as A)
CCCO[C@@H]1C[C@H]2C(=O)NC3(CC(C)(C)C3)C(=O)N(C)[C@@H](C3CCCC3)C(=O)N(C)[C@H](C(=O)N(C)CC)CC(=O)N(C)[C@@H](COCC)C(=O)N[C@@H]([C@@H](C)CC)C(=O)N(C3CC3)CC(=O)N(C)[C@H]3C/C=C\CCN(C3=O)[C@@H](Cc3ccc(C(F)(F)F)cc3)C(=O)N(C)CC(=O)N[C@@H](CCc3cc(F)c(C(F)(F)F)c(F)c3)C(=O)N2C1 [PP3470]	12.2 nM	0.61 nM	A (a compound having 10 or more and less than 20 is denoted as A)	A (a compound having 10 or more and less than 20 is denoted as A)
CCCO[C@@H]1C[C@H]2C(=O)NC3(CC(C)(C)C3)C(=O)N(C)[C@@H](C3CCCC3)C(=O)N(C)[C@H](C(=O)N(C)CC)CC(=O)N(C)[C@@H](COCC)C(=O)N[C@@H]([C@@H](C)CC)C(=O)N3CCC[C@H]3C(=O)N(C)[C@H]3C/C=C\CCN(C3=O)[C@@H](Cc3ccc(C(F)(F)F)cc3)C(=O)N(C)CC(=O)N[C@@H](CCc3cc(F)c(C(F)(F)F)c(F)c3)C(=O)N2C1 [PP3471]	48.7 nM	1.1 nM	A (a compound having 10 or more and less than 20 is denoted as A)	A (a compound having 10 or more and less than 20 is denoted as A)

The next lines start with results.

IC50 [2]	Kd [4]	Compound	HRAS /KRAS [1]	NRAS /KRAS [3]
162 nM	4 nM	CCCO[C@@H]1C[C@H]2C(=O)NC3(CC(C)(C)C3)C(=O)N(C)[C@@H](C3CCCC3)C(=O)N(C)[C@H](C(=O)N(C)CC)CC(=O)N(C)[C@@H](COCC)C(=O)N[C@@H]([C@@H](C)CC)C(=O)N3C[C@@H](C)C[C@H]3C(=O)N(C)[C@H]3C/C=C\CCN(C3=O)[C@@H](Cc3ccc(C)cc3)C(=O)N(C)CC(=O)N[C@@H](CCc3ccc(C(F)(F)F)c(Cl)c3)C(=O)N2C1 [PP3464]	A (a compound having 10 or more and less than 20 is denoted as A)	A (a compound having 10 or more and less than 20 is denoted as A)
23.3 nM	0.6 nM	CCCO[C@@H]1C[C@H]2C(=O)NC3(CC(C)(C)C3)C(=O)N(C)[C@@H](C3CCCC3)C(=O)N(C)[C@H](C(=O)N(C)CC)CC(=O)N(C)[C@@H](COCC)C(=O)N[C@@H]([C@@H](C)CC)C(=O)N3C[C@@H](F)C[C@H]3C(=O)N(C)[C@H]3C/C=C\CCN(C3=O)[C@@H](Cc3ccc(C)cc3)C(=O)N(C)CC(=O)N[C@@H](CCc3ccc(C(F)(F)F)c(Cl)c3)C(=O)N2C1 [PP3465]	A (a compound having 10 or more and less than 20 is denoted as A)	A (a compound having 10 or more and less than 20 is denoted as A)
60.2 nM	1.3 nM	CCCO[C@@H]1C[C@H]2C(=O)NC3(CC(C)(C)C3)C(=O)N(C)[C@@H](C3CCCC3)C(=O)N(C)[C@H](C(=O)N(C)CC)CC(=O)N(C)[C@@H](COCC)C(=O)N[C@@H]([C@@H](C)CC)C(=O)N3CCC[C@H]3C(=O)N(C)[C@H]3C/C=C\CCN(C3=O)[C@@H](Cc3ccc(C)cc3)C(=O)N(C)CC(=O)N[C@@H](CCc3ccc(C(F)(F)F)c(OC)c3)C(=O)N2C1 [PP3467]	A (a compound having 10 or more and less than 20 is denoted as A)	A (a compound having 10 or more and less than 20 is denoted as A)
137 nM	3.4 nM	CCCO[C@@H]1C[C@H]2C(=O)NC3(CC(C)(C)C3)C(=O)N(C)[C@@H](C3CCCC3)C(=O)N(C)[C@H](C(=O)N(C)CC)CC(=O)N(C)[C@@H](COCC)C(=O)N[C@@H]([C@@H](C)CC)C(=O)N3C[C@@H](C)C[C@H]3C(=O)N(C)[C@H]3C/C=C\CCN(C3=O)[C@@H](Cc3ccc(C)cc3)C(=O)N(C)CC(=O)N[C@@H](CCc3ccc(C(F)(F)F)c(OC)c3)C(=O)N2C1 [PP3468]	A (a compound having 10 or more and less than 20 is denoted as A)	B (a compound having 3 or more and less than 10 is denoted as B)
24.2 nM	0.56 nM	CCCO[C@@H]1C[C@H]2C(=O)NC3(CC(C)(C)C3)C(=O)N(C)[C@@H](C3CCCC3)C(=O)N(C)[C@H](C(=O)N(C)CC)CC(=O)N(C)[C@@H](COCC)C(=O)N[C@@H]([C@@H](C)CC)C(=O)N3C[C@@H](F)C[C@H]3C(=O)N(C)[C@H]3C/C=C\CCN(C3=O)[C@@H](Cc3ccc(C)cc3)C(=O)N(C)CC(=O)N[C@@H](CCc3ccc(C(F)(F)F)c(OC)c3)C(=O)N2C1 [PP3469]	A (a compound having 10 or more and less than 20 is denoted as A)	A (a compound having 10 or more and less than 20 is denoted as A)
